# Measurements published in US11998539B2, “Substituted aminoquinolones as DGKalpha inhibitors for immune activation” (Bayer Aktiengesellschaft, priority 2019, dated 2024).
# Biological target: DGKα (Homo sapiens (Human), UniProt P23743)
# Assay: Human DGKα kinase activity inhibition assay (ADP-Glo)
# Assay type: biochemical
# Conditions: recombinant full-length human DGKα, 55 μM ATP, 7 μM 1,2-dioleoyl-sn-glycerol, read-out: IC50 values of examples in in vitro human DGKa kinase activity inhibition assays
# Method in brief: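 Activity was measured as ADP production, detected by luciferase luminescence after removal of unused ATP. The enzyme was baculovirus-expressed full-length human DGKα with a C-terminal FLAG tag. The substrate was 1,2-dioleoyl-sn-glycerol in detergent micelles, and compounds came from 100× DMSO solutions.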
# Chain of DGKα (P23743 other isoform, or with tags, fused parts or gaps): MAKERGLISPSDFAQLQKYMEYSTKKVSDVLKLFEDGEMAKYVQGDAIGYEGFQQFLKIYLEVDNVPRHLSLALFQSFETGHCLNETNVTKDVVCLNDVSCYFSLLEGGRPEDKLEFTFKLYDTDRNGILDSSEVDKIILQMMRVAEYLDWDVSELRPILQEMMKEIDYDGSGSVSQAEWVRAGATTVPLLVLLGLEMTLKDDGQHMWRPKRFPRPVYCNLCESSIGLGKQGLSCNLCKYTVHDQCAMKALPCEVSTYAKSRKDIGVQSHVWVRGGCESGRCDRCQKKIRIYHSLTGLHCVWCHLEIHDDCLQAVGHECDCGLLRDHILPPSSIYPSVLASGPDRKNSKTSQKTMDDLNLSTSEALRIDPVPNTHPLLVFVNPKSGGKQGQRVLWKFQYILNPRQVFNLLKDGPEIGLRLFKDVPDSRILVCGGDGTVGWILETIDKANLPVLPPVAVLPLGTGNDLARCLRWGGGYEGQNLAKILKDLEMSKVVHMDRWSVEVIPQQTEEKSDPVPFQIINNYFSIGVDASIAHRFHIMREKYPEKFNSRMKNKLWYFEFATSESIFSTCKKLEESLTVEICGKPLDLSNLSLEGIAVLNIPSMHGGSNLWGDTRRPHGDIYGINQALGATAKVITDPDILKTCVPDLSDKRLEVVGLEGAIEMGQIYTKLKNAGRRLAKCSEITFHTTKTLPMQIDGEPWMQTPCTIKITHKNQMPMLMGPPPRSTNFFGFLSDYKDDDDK
row,SMILES,IC50 [nM]
1,"Cc1ccc2c(c1)c(N1CCCC(c3nc4ccccc4o3)CC1)c(C#N)c(=O)n2C (centres unmarked) [Example 204, 4-[4-(1,3-benzoxazol-2-yl)azepan-1-yl]-1,6-dimethyl-2-oxo-1,2-dihydroquinoline-3-carbonitrile]",7
2,"Cc1ccc2c(c1)c(N1CCCC(c3nc4ccccc4o3)CC1)c(C(N)=O)c(=O)n2C (centres unmarked) [Example 205, 4-[4-(1,3-benzoxazol-2-yl)azepan-1-yl]-1,6-dimethyl-2-oxo-1,2-dihydroquinoline-3-carboxamide]",4.8
3,"Cn1c(=O)c(C#N)c(N2CCC(c3nc4ccccc4o3)CC2)c2cc(F)ccc21 [Example 206, 4-[4-(1,3-benzoxazol-2-yl)piperidin-1-yl]-6-fluoro-1-methyl-2-oxo-1,2-dihydroquinoline-3-carbonitrile]",0.8
4,"Cc1ccc2oc(C3(C)CCN(c4c(C#N)c(=O)n(C)c5ccc(C#N)cc45)CC3)nc2c1 [Example 207, 1-methyl-4-[4-methyl-4-(5-methyl-1,3-benzoxazol-2-yl)piperidin-1-yl]-2-oxo-1,2-dihydroquinoline-3,6-dicarbonitrile]",2.7
5,"Cc1ccc2oc(C3(C)CCN(c4c(C(N)=O)c(=O)n(C)c5ccc(C#N)cc45)CC3)nc2c1 [Example 208, 6-cyano-1-methyl-4-[4-methyl-4-(5-methyl-1,3-benzoxazol-2-yl)piperidin-1-yl]-2-oxo-1,2-dihydroquinoline-3-carboxamide]",3.4
6,"Cc1ccc2oc(C3(C)CCN(c4c(C#N)c(=O)n(C)c5ccc(C6CC(F)(F)C6)cc45)CC3)nc2c1 [Example 209, 6-(3,3-difluorocyclobutyl)-1-methyl-4-[4-methyl-4-(5-methyl-1,3-benzoxazol-2-yl)piperidin-1-yl]-2-oxo-1,2-dihydroquinoline-3-carbonitrile]",26
7,"Cc1ccc2oc(C3(C)CCN(c4c(C#N)c(=O)n(C)c5ccc(C6CC6)cc45)CC3)nc2c1 [Example 210, 6-cyclopropyl-1-methyl-4-[4-methyl-4-(5-methyl-1,3-benzoxazol-2-yl)piperidin-1-yl]-2-oxo-1,2-dihydroquinoline-3-carbonitrile]",119
8,"CCC(C)c1ccc2c(c1)c(N1CCC(C)(c3nc4cc(C)ccc4o3)CC1)c(C#N)c(=O)n2C (centres unmarked) [Example 211, 6-(butan-2-yl)-1-methyl-4-[4-methyl-4-(5-methyl-1,3-benzoxazol-2-yl)piperidin-1-yl]-2-oxo-1,2-dihydroquinoline-3-carbonitrile]",456
9,"COCc1ccc2c(N3CCC(C)(c4nc5cc(C)ccc5o4)CC3)c(C#N)c(=O)n(C)c2c1 [Example 212, 7-(methoxymethyl)-1-methyl-4-[4-methyl-4-(5-methyl-1,3-benzoxazol-2-yl)piperidin-1-yl]-2-oxo-1,2-dihydroquinoline-3-carbonitrile]",0.3
10,"COCc1ccc2c(c1)c(N1CCC(C)(c3nc4cc(C)ccc4o3)CC1)c(C#N)c(=O)n2C [Example 213, 6-(methoxymethyl)-1-methyl-4-[4-methyl-4-(5-methyl-1,3-benzoxazol-2-yl)piperidin-1-yl]-2-oxo-1,2-dihydroquinoline-3-carbonitrile]",39
11,"Cc1ccc2c(c1)c(N1CCC(C)(c3nc4ccccc4o3)CC1)c(C#N)c(=O)n2C [Example 214, 4-[4-(1,3-benzoxazol-2-yl)-4-methylpiperidin-1-yl]-1,6-dimethyl-2-oxo-1,2-dihydroquinoline-3-carbonitrile]",0.9
12,"Cn1c(=O)c(C#N)c(N2CCC(C)(c3nc4ccccc4o3)CC2)c2cc(F)ccc21 [Example 216, 4-[4-(1,3-benzoxazol-2-yl)-4-methylpiperidin-1-yl]-6-fluoro-1-methyl-2-oxo-1,2-dihydroquinoline-3-carbonitrile]",0.4
13,"Cc1ccc2oc(C3CCN(c4c(C#N)c(=O)n(C)c5ccc(F)cc45)CC3)nc2c1 [Example 217, 6-fluoro-1-methyl-4-[4-(5-methyl-1,3-benzoxazol-2-yl)piperidin-1-yl]-2-oxo-1,2-dihydroquinoline-3-carbonitrile]",1
14,"Cc1ccc2c(N3CCC(C)(c4nc5ccccc5o4)CC3)c(C#N)c(=O)n(C)c2c1 [Example 218, 4-[4-(1,3-benzoxazol-2-yl)-4-methylpiperidin-1-yl]-1,7-dimethyl-2-oxo-1,2-dihydroquinoline-3-carbonitrile]",0.6
15,"Cc1ccc2c(N3CCC(c4nc5ccccc5o4)CC3)c(C#N)c(=O)n(C)c2c1 [Example 219, 4-[4-(1,3-benzoxazol-2-yl)piperidin-1-yl]-1,7-dimethyl-2-oxo-1,2-dihydroquinoline-3-carbonitrile]",1.6
16,"Cc1ccc2oc(C3(C)CCN(c4c(C#N)c(=O)n(C)c5cc(C)ccc45)CC3)nc2c1 [Example 220, 1,7-dimethyl-4-[4-methyl-4-(5-methyl-1,3-benzoxazol-2-yl)piperidin-1-yl]-2-oxo-1,2-dihydroquinoline-3-carbonitrile]",1.7

row,SMILES,IC50 [nM]
1,"Cc1ccc2oc(C3CCN(c4c(C#N)c(=O)n(C)c5cc(C)ccc45)CC3)nc2c1 [Example 221, 1,7-dimethyl-4-[4-(5-methyl-1,3-benzoxazol-2-yl)piperidin-1-yl]-2-oxo-1,2-dihydroquinoline-3-carbonitrile]",1.8
2,"Cc1ccc2c(N3CCC(c4nc5ccccc5s4)CC3)c(C#N)c(=O)n(C)c2c1 [Example 222, 4-[4-(1,3-benzothiazol-2-yl)piperidin-1-yl]-1,7-dimethyl-2-oxo-1,2-dihydroquinoline-3-carbonitrile]",5.2
3,"CCC1(c2nc3ccccc3o2)CCN(c2c(C#N)c(=O)n(C)c3cc(Br)ccc23)CC1 [Example 223, 4-[4-(1,3-benzoxazol-2-yl)-4-ethylpiperidin-1-yl]-7-bromo-1-methyl-2-oxo-1,2-dihydroquinoline-3-carbonitrile]",1.2
4,"Cn1c(=O)c(C#N)c(N2CCC(C)(c3nc4ccccc4o3)CC2)c2ccc(Cl)cc21 [Example 226, 4-[4-(1,3-benzoxazol-2-yl)-4-methylpiperidin-1-yl]-7-chloro-1-methyl-2-oxo-1,2-dihydroquinoline-3-carbonitrile]",1.3
5,"Cn1c(=O)c(C#N)c(N2CCC(c3nc4ccccc4o3)CC2)c2ccc(Cl)cc21 [Example 227, 4-[4-(1,3-benzoxazol-2-yl)piperidin-1-yl]-7-chloro-1-methyl-2-oxo-1,2-dihydroquinoline-3-carbonitrile]",2
6,"Cc1ccc2oc(C3(C)CCN(c4c(C#N)c(=O)n(C)c5cc(Cl)ccc45)CC3)nc2c1 [Example 228, 7-chloro-1-methyl-4-[4-methyl-4-(5-methyl-1,3-benzoxazol-2-yl)piperidin-1-yl]-2-oxo-1,2-dihydroquinoline-3-carbonitrile]",2.4
7,"Cc1ccc2oc(C3CCN(c4c(C#N)c(=O)n(C)c5cc(Cl)ccc45)CC3)nc2c1 [Example 229, 7-chloro-1-methyl-4-[4-(5-methyl-1,3-benzoxazol-2-yl)piperidin-1-yl]-2-oxo-1,2-dihydroquinoline-3-carbonitrile]",3
8,"Cn1c(=O)c(C#N)c(N2CCC(C)(c3nc4ccccc4o3)CC2)c2cccc(Cl)c21 [Example 230, 4-[4-(1,3-benzoxazol-2-yl)-4-methylpiperidin-1-yl]-8-chloro-1-methyl-2-oxo-1,2-dihydroquinoline-3-carbonitrile]",83
9,"Cc1ccc2oc(C3(C)CCN(c4c(C#N)c(=O)n(C)c5c(Cl)cccc45)CC3)nc2c1 [Example 231, 8-chloro-1-methyl-4-[4-methyl-4-(5-methyl-1,3-benzoxazol-2-yl)piperidin-1-yl]-2-oxo-1,2-dihydroquinoline-3-carbonitrile]",108
10,"Cc1ccc2oc(C3CCN(c4c(C#N)c(=O)n(C)c5c(Cl)cccc45)CC3)nc2c1 [Example 232, 8-chloro-1-methyl-4-[4-(5-methyl-1,3-benzoxazol-2-yl)piperidin-1-yl]-2-oxo-1,2-dihydroquinoline-3-carbonitrile]",163
11,"Cc1ccc2oc(C3(C)CCN(c4c(C#N)c(=O)n(C)c5c(Br)cccc45)CC3)nc2c1C(F)(F)F [Example 233, 8-bromo-1-methyl-4-{4-methyl-4-[5-methyl-4-(trifluoromethyl)-1,3-benzoxazol-2-yl]piperidin-1-yl}-2-oxo-1,2-dihydroquinoline-3-carbonitrile]",1270
12,"Cc1ccc2oc([C@H]3CCN(c4c(C#N)c(=O)n(C)c5ccccc45)[C@@H](C)C3)nc2c1 [Example 234, 1-methyl-4-[(2S,4S)-2-methyl-4-(5-methyl-1,3-benzoxazol-2-yl)piperidin-1-yl]-2-oxo-1,2-dihydroquinoline-3-carbonitrile]",1.8
13,"Cn1c(=O)c(C#N)c(N2CCC(C)(c3nc4ccccc4o3)CC2)c2ccc(F)cc21 [Example 235, 4-[4-(1,3-benzoxazol-2-yl)-4-methylpiperidin-1-yl]-7-fluoro-1-methyl-2-oxo-1,2-dihydroquinoline-3-carbonitrile]",2.9
14,"Cn1c(=O)c(C#N)c(N2CCC(c3nc4ccccc4o3)CC2)c2ccc(F)cc21 [Example 236, 4-[4-(1,3-benzoxazol-2-yl)piperidin-1-yl]-7-fluoro-1-methyl-2-oxo-1,2-dihydroquinoline-3-carbonitrile]",4.3
15,"Cc1ccc2oc(C3(C)CCN(c4c(C#N)c(=O)n(C)c5cc(F)ccc45)CC3)nc2c1 [Example 237, 7-fluoro-1-methyl-4-[4-methyl-4-(5-methyl-1,3-benzoxazol-2-yl)piperidin-1-yl]-2-oxo-1,2-dihydroquinoline-3-carbonitrile]",5
16,"Cc1ccc2oc(C3CCN(c4c(C#N)c(=O)n(C)c5cc(F)ccc45)CC3)nc2c1 [Example 238, 7-fluoro-1-methyl-4-[4-(5-methyl-1,3-benzoxazol-2-yl)piperidin-1-yl]-2-oxo-1,2-dihydroquinoline-3-carbonitrile]",12
